Results as given in US20040186181A1, “Method and composition for decreasing ghrelin levels” (InterHealth Nutraceuticals, Incorporated, priority 2003, published 2004).

What was measured:
[1] = Ingestion of HCA by rodents, serum levels; assay type: in vivo
Excerpt: (§1) It has been shown that ingestion of compositions incorporating a salt of (−) hydroxycitric acid (HCA) leads to increased levels of serotonin. Serotonin levels, like ghrelin levels, also are related to NPY, and an increase in serotonin levels is a well-established mechanism of appetite suppression. Ingestion of HCA by persons and rodents results in a decrease in serum leptin and ghrelin levels and an increase in serum serotonin levels.

[2] = Ingestion of HCA by persons, serum levels and appetite (controlled trials); assay type: in vivo
Excerpt: as §1

[3] = system: cholesterol; details: in vivo; cited from earlier work
[4] = system: cholesterol; details: animal models; cited from earlier work
[5] = system: DNA; details: cited from earlier work

Compound: O=C(O)CC(O)(C(=O)O)C(O)C(=O)O (single isomer, unassigned; (-)) [HCA, (−)hydroxycitric acid]
- serum ghrelin levels [1]: decrease
- serum leptin levels [1]: decrease
- serum serotonin levels [1]: increase
- appetite ([2]; amount of food remaining on plates, controlled trials): time-dependent decrease in appetite
- serum ghrelin levels ([2]; ingestion of HCA): decrease
- serum leptin levels ([2]; ingestion of HCA): decrease
- serum serotonin levels ([2]; ingestion of HCA): increase

Compound: O=C(O[C@@H]1Cc2c(O)cc(O)cc2O[C@@H]1c1cc(O)c(O)c(O)c1)c1cc(O)c(O)c(O)c1 [EGCG, epigallocatechin gallate]
- cholesterol levels [3]: reduce cholesterol levels

Compound: Gymnemic acid
- cholesterol [4]: lower cholesterol

Compound: chromium picolinate
- safety and toxicity [5]: damage DNA and be mutagenic
